The term IC50 denotes the concentration that gives 50% inhibition. What is called EC50 is the concentration needed to bring the measured effect to its halfway point. A low value points to an effect from little substance. One may read the AC50 as the concentration giving half of the maximal activity seen. As usually defined, the Ki is a measure of affinity in units of concentration, obtained from inhibition or displacement. The term CC50 denotes the concentration at which the toxic effect on the cells reaches its halfway point.

Calls of active or inactive are those of the source. Where only a bound is given, the exact number is not on record here.

Nine compounds from ChEMBL document CHEMBL1201862, “PubChem BioAssay data set” (2004) can be followed below.

Test [1] is described as follows: inhibition of ADAM10 peptide cleavage – biochemical, FRET peptide substrate, recombinant human ADAM10, selectivity assay for ADAM17 exosite inhibitor project, dose response (AID 743259).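 Further: ADAM10 enzyme cleaving a FRET peptide substrate.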
Test [2] deals with Disintegrin and metalloproteinase domain-containing protein 17 (Homo sapiens, UniProt P78536). The test is described as follows: exosite inhibitors of ADAM17, dose response, biochemical (AID 743260).
Test [3] addresses G-protein coupled receptor 35 (Homo sapiens, UniProt Q9HC97). The test is described as follows: inhibition of zaprinast-stimulated GPR35 beta-arrestin translocation – imaging, U2OS, beta-arrestin-GFP, zaprinast agonist, primary screen (AID 2058).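 Further: antagonist potency meaning inhibition of agonist-induced arrestin redistribution.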 In kind it is functional.
The target of test [4] is T1, Eukaryotic translation initiation factor 2-alpha kinase 3 (Homo sapiens, UniProt Q9NZJ5).
T1 sequence (Q9NZJ5 whole entry): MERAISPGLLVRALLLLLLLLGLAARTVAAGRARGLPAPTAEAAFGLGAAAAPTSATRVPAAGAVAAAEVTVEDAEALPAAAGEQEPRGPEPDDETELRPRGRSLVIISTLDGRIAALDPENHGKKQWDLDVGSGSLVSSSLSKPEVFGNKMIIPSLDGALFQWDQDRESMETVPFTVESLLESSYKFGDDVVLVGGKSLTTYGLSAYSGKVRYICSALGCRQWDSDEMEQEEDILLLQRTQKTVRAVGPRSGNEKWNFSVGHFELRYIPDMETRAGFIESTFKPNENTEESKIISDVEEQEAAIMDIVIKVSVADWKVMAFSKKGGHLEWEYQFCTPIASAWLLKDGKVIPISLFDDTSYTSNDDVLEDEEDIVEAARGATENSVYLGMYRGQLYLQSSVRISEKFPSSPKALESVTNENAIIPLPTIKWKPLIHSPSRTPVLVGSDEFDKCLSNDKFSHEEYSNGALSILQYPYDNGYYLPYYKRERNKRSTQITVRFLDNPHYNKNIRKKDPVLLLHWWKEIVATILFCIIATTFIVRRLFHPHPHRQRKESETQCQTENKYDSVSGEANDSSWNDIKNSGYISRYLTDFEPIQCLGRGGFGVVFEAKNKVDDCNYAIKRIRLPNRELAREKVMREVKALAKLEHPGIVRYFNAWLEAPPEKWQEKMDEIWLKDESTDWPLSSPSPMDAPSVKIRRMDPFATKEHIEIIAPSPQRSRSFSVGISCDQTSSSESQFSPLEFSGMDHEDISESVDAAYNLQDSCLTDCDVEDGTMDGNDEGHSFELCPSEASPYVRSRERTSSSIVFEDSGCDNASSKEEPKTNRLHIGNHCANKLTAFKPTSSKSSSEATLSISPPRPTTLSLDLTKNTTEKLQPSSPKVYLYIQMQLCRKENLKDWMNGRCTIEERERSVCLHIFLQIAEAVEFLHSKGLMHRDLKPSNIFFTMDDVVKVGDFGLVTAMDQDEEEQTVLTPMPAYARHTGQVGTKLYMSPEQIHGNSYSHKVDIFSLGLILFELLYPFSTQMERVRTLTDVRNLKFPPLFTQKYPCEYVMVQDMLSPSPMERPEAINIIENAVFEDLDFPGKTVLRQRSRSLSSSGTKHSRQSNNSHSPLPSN
Description: Dose response cell-based high-throughput screening assay to measure PERK inhibition. [Related pubchem assays: 1416 ]. It is filed as functional.

Test [5] concerns the target T1, Eukaryotic translation initiation factor 2-alpha kinase 3. Description: Counterscreen assay for PERK inhibitors: Dose response cell-based high throughput screening assay to measure inhibition of PERK at 6 hours. [Related pubchem assays: 1522, 1416 ]. It is filed as functional.
The target of test [6] is T2, Rac GTPase-activating protein 1 (Homo sapiens, UniProt Q9H0H5).
T2 sequence (Q9H0H5 whole entry): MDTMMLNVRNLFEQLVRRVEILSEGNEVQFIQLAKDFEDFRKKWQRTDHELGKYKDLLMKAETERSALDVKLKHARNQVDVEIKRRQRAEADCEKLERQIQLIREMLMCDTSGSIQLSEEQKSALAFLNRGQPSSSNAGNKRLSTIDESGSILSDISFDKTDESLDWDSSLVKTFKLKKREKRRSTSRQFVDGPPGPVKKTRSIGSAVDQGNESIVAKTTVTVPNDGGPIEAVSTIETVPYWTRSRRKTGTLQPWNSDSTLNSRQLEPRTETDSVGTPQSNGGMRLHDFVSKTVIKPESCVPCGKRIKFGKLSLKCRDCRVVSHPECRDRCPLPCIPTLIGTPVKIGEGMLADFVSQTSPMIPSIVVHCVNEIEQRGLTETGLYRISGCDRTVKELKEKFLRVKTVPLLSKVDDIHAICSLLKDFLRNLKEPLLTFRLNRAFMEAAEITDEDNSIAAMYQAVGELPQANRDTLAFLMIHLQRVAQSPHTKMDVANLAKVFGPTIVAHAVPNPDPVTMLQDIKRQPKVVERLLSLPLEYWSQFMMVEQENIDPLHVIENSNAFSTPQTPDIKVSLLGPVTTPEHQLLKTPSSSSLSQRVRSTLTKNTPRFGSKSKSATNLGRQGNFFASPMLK
The test is described as follows: blockers of MgcRacGAP-driven Rac1 GTP hydrolysis – biochemical, ADP Hunter fluorescence, primary and confirmatory, confirmation (AID 624330). In kind it is functional.

Test [7] concerns the target Melanin-concentrating hormone receptor 1 (Homo sapiens, UniProt Q99705). Description: Fluorescence-based counterscreen for antagonists of the G-protein coupled receptor 7 (GPR7): cell-based high throughput dose response assay to identify antagonists of the melanin-concentrating hormone receptor 1 (MCHR1). In kind it is functional. (In general: The purpose of a counterscreen is to sort out artefacts and off-target activity.)

Test [8] in a line: blockers of HIV-1 ZM109 envelope-driven cell-cell fusion – HeLa effector, CEM target cells, luciferase, cherry-pick, dose response (AID 652058).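 Further: luciferase signal from HIV-1 Env mediated cell-cell fusion of effector and target cells.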 In kind it is functional, cell-based.
The next test deals with fMet-Leu-Phe receptor (Homo sapiens, UniProt P21462). Description: formyl peptide receptor binders – dose response (AID 519). In kind it is functional.
Test [9] concerns the target T3, Neuropeptides B/W receptor type 1 (Homo sapiens, UniProt P48145).
T3 sequence (P48145 whole entry): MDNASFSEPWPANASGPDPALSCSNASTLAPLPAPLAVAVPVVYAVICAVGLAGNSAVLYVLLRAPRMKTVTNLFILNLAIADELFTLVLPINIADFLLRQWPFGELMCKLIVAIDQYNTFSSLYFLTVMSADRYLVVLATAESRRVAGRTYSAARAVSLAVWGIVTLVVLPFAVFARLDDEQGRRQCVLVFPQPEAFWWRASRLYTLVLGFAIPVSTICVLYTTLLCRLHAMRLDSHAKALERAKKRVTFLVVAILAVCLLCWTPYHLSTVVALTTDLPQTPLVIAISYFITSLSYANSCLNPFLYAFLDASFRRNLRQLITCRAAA
Description: Fluorescence-based dose response cell-based high throughput screening assay to identify antagonists of the G-protein coupled receptor 7 (GPR7). [Related pubchem assays: 1952 (Screening assay (GPR7 antagonists).), 1880 (Summary AID.)]. It is filed as functional.

A short description of test [10]: HIV-1 AD8 envelope cell-cell fusion blockers – cherry-pick, dose response (AID 652062).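 Further: luciferase signal from cell-cell fusion driven by HIV-1 clade B AD8 Env; potency is for inhibitors of fusion seen as a drop in luminescence.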 In kind it is functional, cell-based.
A short description of test [11]: off-target signal loss in HeLa-CEM21 co-culture – HeLa F-luc CTL cells, cherry-picked, counter-screen for HIV-1 Env fusion inhibitor project, dose response (AID 652040).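 Further: potency for signal decrease marking cytotoxic or nonspecific inhibition.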 In kind it is functional, cell-based.
Test [12] can be described thus: blockers of HIV-1 envelope-mediated cell-cell fusion – cherry-pick, dose response (AID 652057). It is filed as functional, cell-based.
Test [13] can be described thus: viability loss in CEM21 cells – cell-based, CellTiter-Glo luminescence, cherry-picked, cytotoxicity control for viral fusion inhibitor project, dose response (AID 652042).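 Further: potency for signal decrease meaning cytotoxicity.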 It is filed as functional.
Test [14] in a line: THP-1 cell cytotoxicity, dose response, cytotoxicity control for non-replicating M. tuberculosis project (AID 489025). In kind it is functional.
A short description of test [15]: HepG2 cell cytotoxicity, dose response, cytotoxicity control for non-replicating M. tuberculosis project (AID 489018). It is filed as functional. The settings on record: Mycobacterium tuberculosis.
Test [16] is described as follows: Vero E6 cell cytotoxicity, dose response, cytotoxicity control for non-replicating M. tuberculosis project, secondary assay (AID 492998). In kind it is functional, VeroE6. Particulars: Vero C1008.
Test [17] can be described thus: HEK-293T cell viability reduction – luminescence, B-cell screen hits, cytotoxicity control for BCR NF-kB inhibitor project, dose response (AID 489021).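 Further: HEK-293T cells carrying an NF-kB luciferase reporter; cells exposed to compound for about 14 hours before viability readout.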 In kind it is functional, cell-based.
Test [18] addresses DNA dC->dU-editing enzyme APOBEC-3A (Homo sapiens, UniProt P31941). Description: A3A deaminase inhibition for selectivity – biochemical, dose response (AID 504722). In kind it is functional.
Test [19] concerns the target DNA dC->dU-editing enzyme APOBEC-3G (Homo sapiens, UniProt Q9HC16). Description: Dose Response confirmation of small molecule APOBEC3G DNA Deaminase Inhibitors via a fluorescence-based single-stranded DNA deaminase assay. [Related pubchem assays (depositor defined):AID493012, AID493028]. It is filed as functional.
In test [20] the target is Polyadenylate-binding protein 1 (Homo sapiens, UniProt P11940). Description: blockers of PABP interaction with poly(A) – biochemical, fluorescence polarization, […] (AID 2014).
Test [21] has as its target Eukaryotic translation initiation factor 4H (Homo sapiens, UniProt Q15056). The test is described as follows: eIF4H binding inhibition – biochemical, uHTS, fluorescence polarization, translation initiation inhibitor project, primary screen (AID 2012). (In general: Fluorescence polarisation rises when a labelled molecule tumbles more slowly, as on binding a larger partner.)

Test [22] concerns the target T4, Dual specificity protein phosphatase 6 (Rattus norvegicus, UniProt Q64346).
T4 sequence (Q64346 whole entry): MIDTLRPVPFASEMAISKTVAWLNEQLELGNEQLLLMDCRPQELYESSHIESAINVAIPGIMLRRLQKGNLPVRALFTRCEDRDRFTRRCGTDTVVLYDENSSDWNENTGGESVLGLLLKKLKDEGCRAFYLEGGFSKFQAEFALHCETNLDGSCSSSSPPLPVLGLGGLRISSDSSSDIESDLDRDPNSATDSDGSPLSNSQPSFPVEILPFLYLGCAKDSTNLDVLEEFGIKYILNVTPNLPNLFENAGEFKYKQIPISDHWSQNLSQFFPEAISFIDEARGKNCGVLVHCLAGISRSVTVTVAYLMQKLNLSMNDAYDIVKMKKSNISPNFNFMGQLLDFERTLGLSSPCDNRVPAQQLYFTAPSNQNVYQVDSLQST
It is filed as functional.

The target in test [23] is T4, Dual specificity protein phosphatase 6.
In test [24] the target is Glyceraldehyde-3-phosphate dehydrogenase (Homo sapiens, UniProt P04406).
Test [25] has as its target T5, Tyrosine-protein phosphatase non-receptor type 7 (Homo sapiens, UniProt P35236).
T5 sequence (P35236 whole entry): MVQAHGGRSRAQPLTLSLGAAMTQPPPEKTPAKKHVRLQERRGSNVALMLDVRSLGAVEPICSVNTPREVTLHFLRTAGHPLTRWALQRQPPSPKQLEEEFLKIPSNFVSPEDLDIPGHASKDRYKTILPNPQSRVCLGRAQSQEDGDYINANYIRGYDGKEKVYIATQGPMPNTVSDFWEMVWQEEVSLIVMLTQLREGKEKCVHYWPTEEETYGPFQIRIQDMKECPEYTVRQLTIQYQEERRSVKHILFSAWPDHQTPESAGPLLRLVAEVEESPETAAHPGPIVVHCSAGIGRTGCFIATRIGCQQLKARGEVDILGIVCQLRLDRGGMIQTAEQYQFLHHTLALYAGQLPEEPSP
It is filed as functional.

Chain of Disintegrin and metalloproteinase domain-containing protein 17 (P78536 whole entry, the tested form may be a part): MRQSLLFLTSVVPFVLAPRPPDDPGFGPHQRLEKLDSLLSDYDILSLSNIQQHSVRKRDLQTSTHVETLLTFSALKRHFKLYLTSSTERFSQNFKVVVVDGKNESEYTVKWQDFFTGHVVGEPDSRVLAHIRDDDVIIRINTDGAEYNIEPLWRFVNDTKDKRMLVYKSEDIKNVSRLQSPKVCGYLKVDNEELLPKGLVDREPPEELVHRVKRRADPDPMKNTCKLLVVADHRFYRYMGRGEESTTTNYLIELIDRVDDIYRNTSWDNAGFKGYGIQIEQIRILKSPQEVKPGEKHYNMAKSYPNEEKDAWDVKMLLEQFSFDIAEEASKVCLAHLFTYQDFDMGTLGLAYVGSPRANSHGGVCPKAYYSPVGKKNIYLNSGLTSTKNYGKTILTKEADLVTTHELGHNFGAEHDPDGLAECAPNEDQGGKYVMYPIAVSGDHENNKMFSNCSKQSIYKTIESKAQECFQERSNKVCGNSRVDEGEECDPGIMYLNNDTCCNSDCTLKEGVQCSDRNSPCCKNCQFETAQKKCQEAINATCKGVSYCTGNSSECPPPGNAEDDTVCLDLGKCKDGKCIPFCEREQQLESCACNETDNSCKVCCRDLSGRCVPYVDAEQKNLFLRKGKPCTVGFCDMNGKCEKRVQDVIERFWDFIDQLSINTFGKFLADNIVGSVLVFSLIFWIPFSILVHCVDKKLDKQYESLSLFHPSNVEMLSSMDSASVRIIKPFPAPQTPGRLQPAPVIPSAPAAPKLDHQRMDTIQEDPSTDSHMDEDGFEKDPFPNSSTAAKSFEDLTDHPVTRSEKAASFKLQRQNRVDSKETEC
Chain of Melanin-concentrating hormone receptor 1 (Q99705 whole entry): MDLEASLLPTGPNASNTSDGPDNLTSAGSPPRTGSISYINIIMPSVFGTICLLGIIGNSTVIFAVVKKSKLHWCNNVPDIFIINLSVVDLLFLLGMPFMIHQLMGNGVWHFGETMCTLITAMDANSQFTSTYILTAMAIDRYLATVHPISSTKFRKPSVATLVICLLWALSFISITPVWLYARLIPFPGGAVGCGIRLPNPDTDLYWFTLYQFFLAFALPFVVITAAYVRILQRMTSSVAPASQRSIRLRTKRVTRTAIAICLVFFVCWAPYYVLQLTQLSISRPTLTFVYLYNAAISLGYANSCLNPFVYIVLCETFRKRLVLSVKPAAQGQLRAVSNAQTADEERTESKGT
Chain of DNA dC->dU-editing enzyme APOBEC-3G (Q9HC16 whole entry): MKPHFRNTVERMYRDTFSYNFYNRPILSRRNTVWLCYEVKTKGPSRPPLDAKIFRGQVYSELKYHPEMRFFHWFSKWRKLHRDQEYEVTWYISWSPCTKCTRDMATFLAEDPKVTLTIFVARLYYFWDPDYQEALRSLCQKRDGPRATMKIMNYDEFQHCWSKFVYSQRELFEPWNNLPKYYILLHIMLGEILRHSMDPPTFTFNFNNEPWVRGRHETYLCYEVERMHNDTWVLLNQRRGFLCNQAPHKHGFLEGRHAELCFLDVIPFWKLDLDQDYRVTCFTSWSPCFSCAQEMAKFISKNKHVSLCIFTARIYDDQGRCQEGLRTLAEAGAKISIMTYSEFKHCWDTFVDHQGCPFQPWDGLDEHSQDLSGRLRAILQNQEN
Chain of Glyceraldehyde-3-phosphate dehydrogenase (P04406 whole entry): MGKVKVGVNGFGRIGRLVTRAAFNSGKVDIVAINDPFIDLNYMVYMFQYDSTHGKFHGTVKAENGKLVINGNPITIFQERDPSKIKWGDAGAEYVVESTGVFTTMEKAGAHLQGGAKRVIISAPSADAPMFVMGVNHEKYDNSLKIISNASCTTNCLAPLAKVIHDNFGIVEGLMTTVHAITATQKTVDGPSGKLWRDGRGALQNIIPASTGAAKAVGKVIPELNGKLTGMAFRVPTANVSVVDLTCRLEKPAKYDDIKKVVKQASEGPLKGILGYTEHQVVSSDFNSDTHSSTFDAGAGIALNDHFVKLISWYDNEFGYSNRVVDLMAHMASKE
Chain of fMet-Leu-Phe receptor (P21462 whole entry): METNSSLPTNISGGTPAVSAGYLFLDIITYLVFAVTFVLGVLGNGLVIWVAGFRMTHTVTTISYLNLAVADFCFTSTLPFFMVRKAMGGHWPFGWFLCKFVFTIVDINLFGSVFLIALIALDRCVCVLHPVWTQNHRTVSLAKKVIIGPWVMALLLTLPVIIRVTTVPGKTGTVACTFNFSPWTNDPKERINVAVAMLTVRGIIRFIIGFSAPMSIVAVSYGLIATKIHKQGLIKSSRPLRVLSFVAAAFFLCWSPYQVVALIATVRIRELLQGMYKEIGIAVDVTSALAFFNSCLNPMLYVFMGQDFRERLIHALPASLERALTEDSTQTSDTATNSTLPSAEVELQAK
Chain of G-protein coupled receptor 35 (Q9HC97 whole entry): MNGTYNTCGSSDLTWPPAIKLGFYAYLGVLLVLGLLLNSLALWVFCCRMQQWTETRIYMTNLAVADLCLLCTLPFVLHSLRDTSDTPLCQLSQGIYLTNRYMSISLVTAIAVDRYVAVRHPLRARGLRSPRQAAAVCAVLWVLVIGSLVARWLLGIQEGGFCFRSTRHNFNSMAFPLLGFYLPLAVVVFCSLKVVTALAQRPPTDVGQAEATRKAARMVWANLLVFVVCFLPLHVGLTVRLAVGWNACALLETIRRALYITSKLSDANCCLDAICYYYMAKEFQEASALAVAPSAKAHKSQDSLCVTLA
Chain of Polyadenylate-binding protein 1 (P11940 whole entry): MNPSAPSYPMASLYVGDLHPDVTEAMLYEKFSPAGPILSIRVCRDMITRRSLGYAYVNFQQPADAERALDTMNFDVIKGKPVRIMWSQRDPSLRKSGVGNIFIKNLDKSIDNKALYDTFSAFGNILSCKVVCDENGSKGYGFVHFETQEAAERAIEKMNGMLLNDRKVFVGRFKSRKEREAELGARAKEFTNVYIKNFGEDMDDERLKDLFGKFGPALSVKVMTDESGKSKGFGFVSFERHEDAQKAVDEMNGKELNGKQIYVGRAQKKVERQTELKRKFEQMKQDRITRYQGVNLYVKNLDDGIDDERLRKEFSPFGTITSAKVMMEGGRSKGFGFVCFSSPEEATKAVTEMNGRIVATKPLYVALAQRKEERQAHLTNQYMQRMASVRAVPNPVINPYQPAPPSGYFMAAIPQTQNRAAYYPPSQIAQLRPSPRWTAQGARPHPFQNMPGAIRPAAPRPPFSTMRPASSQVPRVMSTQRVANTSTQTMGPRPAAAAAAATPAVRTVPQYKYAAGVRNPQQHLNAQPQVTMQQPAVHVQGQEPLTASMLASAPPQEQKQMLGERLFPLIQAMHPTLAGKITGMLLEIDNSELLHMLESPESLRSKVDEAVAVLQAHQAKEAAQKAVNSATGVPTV
Chain of DNA dC->dU-editing enzyme APOBEC-3A (P31941 whole entry): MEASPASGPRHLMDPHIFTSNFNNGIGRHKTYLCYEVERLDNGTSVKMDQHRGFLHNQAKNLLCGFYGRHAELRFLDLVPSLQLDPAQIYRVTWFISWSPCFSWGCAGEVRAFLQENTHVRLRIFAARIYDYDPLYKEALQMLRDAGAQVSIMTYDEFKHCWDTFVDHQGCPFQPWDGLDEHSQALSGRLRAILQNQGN

On to `Cc1nc(N2CCCCC2)c2c(C)c(C(=O)Nc3ccc4c(c3)OCCO4)sc2n1`, for which the IC50 in [1] was > 69.5 µM (inactive); in test [2] it was > 69.5 µM (inactive); in [3] it was 2.07 µM (active).

Consider `Cc1c(O)ccc2c3c(c(=O)oc12)CCCC3`, for which the EC50 in test [4] and in [5] was > 55.7 µM (not active) in each case. Further, the IC50 in test [6] was 22.5 µM (active).

For the compound `Clc1ccc(C2CC(c3cccs3)n3ncnc3N2)cc1Cl` (centres undefined), the results for the IC50 in test [7] and in test [9] were 16 µM (not active) and > 4.87 µM (active), respectively. Moreover, the AC50 was 7.81 µM (active) in [8]; 6.95 µM (active) in [10]; 7.08 µM (active) in test [11]; 7.3 µM (active) in test [12]; 56.8 µM (active) in [13]. Also, the Ki on fMet-Leu-Phe receptor was > 66.7 µM (inactive).

Consider `N#Cc1ccsc1NC(=O)c1ccc(Cl)c([N+](=O)[O-])c1`, for which the CC50 was 20.9 µM (active) in [14], > 20 µM (active) in test [15] and 13.9 µM (active) in test [16]. For the same compound, the half-maximal effective concentration (EC50) in test [4] and in test [5] was > 55.7 µM (not active) each time.

Consider `CC1Cc2ccccc2N1S(=O)(=O)c1cnc(Cl)c(Cl)c1` (centres undefined), for which the IC50 in test [17] was > 80 µM (inactive).

On to `O=C(O)c1ccc(/C=N/n2cc(-c3ccccc3)nc2S)cc1`, for which the IC50 in [18] was > 100 µM (inactive); in test [19], 3.33 µM (active).

On to `CCCC[N+]12C3C[C@H](C4[C@H](O)[C@]5(C[C@@H]41)c1ccccc1N(C)[C@@H]35)[C@H](CC)[C@H]2O` (some centres undefined), for which the results for the IC50 in [20] and in test [21] were 5.27 µM (active) and > 100 µM (inactive), respectively.

Take `CCC(CC)C(=O)Nc1ccc(Sc2ccc([N+](=O)[O-])cc2)cc1`: the IC50 in [17] was > 80 µM (inactive).

Regarding `CCCCCCCCCCCCCCCCCCC=CCCCCCC(=O)O`, the IC50 is > 100 µM (inactive) in test [22], > 100 µM (inactive) in test [23], > 100 µM (not active) in test [24] and 0.801 µM (active) in test [25].
